# Assays:
# [1] = target: T1, Human melanin-concentrating hormone (MCH1) (Homo sapiens, UniProt Q99705); assay: Radioligand binding, human melanin-concentrating hormone MCH1 membranes, FlashPlate, [125I]-S36057; settings: compound at 10 μM
# T1 construct: purchased Perkin Elmer Biosignal
# Procedure, shortened: (§1)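 Cloned human receptor membranes were coated onto FlashPlate wells and incubated with radioligand and compound (added from a 0.5 mM DMSO daughter plate) for 1 hour at room temperature in the dark. Scintillation counting gave percent inhibition, with DMSO defining total and reference ligand defining non-specific binding.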
# Human μ-opioid (MOP) = target: T2, Human μ-opioid (MOP) (Homo sapiens, UniProt P35372); assay: Radioligand binding, human μ-opioid (MOP) membranes, FlashPlate, [3H]-Naloxone; settings: compound at 10 μM, [3H]-Naloxone
# T2 construct: purchased Perkin Elmer Biosignal
# Procedure, shortened: as §1
# Human neurokinin (NK1) = target: T3, Human neurokinin (NK1) (Homo sapiens, UniProt P25103); assay: Radioligand binding, human neurokinin NK1 membranes, filtration, [125I]-Substance P; settings: compound at 10 μM, [125I]-Substance P
# T3 construct: purchased Perkin Elmer Biosignal
# Procedure, shortened: (§2)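 Membranes from cloned human receptors were incubated with compound and radioligand for 1 hour at room temperature. Bound ligand was collected on 0.3% PEI-soaked filters, washed with cold 50 mM Tris-HCl pH 7.4, and counted by scintillation. Percent inhibition was computed against DMSO totals and reference-ligand nonspecific wells.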
# Human κ-Opioid (KOP) = target: T4, Human κ-Opioid (KOP) (Homo sapiens, UniProt P41145); assay: Radioligand binding, human κ-opioid (KOP) membranes, filtration, [3H]-Diprenorphine; settings: compound at 10 μM, [3H]-Diprenorphine
# T4 construct: purchased Perkin Elmer Biosignal
# Procedure, shortened: as §2
# Human δ-opioid (DOP) = target: T5, Human δ-opioid (DOP) (Homo sapiens, UniProt P41143); assay: Radioligand binding, human δ-opioid (DOP) membranes, FlashPlate, [3H]-Bremazocine; settings: compound at 10 μM, [3H]-Bremazocine
# T5 construct: purchased Perkin Elmer Biosignal
# Procedure, shortened: as §1
# [2] = target: T6, Human neuropeptide Y (NPY-Y1) (Homo sapiens, UniProt P25929); assay: Radioligand binding, human neuropeptide Y NPY-Y1 membranes, FlashPlate, [125I]-PYY; settings: compound at 10 μM, [125I]-PYY
# T6 construct: purchased Perkin Elmer Biosignal
# T6 sequence (P25929 1-384): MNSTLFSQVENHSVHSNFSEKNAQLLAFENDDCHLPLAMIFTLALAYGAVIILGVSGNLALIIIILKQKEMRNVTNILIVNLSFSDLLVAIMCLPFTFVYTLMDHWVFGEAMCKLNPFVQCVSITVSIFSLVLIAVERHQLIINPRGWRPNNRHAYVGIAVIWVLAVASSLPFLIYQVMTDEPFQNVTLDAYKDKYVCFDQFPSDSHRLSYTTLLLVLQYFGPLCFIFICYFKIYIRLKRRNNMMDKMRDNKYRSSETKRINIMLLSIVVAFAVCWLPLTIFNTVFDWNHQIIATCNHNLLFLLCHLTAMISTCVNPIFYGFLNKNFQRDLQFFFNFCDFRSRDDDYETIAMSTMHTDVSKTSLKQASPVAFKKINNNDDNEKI
# Procedure, shortened: as §1
# Mouse urotensin (mUR2) = target: T7, Mouse urotensin (mUR2) (Mus musculus, UniProt Q8VIH9); assay: Radioligand binding, mouse urotensin mUR2 membranes, FlashPlate, [125I]-Urotensin II; settings: compound at 10 μM, [125I]-Urotensin II
# T7 construct: purchased Perkin Elmer Biosignal
# T7 sequence (Q8VIH9 1-385): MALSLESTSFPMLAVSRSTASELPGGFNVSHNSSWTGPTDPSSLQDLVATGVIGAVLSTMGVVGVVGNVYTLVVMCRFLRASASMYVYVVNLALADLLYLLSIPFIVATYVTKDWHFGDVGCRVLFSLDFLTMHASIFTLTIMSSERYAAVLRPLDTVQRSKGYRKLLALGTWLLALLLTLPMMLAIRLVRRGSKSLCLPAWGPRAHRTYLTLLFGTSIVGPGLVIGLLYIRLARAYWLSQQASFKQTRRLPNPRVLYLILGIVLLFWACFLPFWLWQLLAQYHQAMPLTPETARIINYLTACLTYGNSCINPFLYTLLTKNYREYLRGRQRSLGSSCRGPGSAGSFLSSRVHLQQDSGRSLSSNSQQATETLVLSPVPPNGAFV
# Procedure, shortened: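 Cloned mouse urotensin (mUR2) receptor membranes from Perkin Elmer Biosignal were immobilized in FlashPlate microplates using a proprietary coating. Each well got 19.5 μl buffer, then 0.5 μl of DMSO, reference ligand, or compound. Adding 5 μl of [125I]-Urotensin II, diluted to 5× final concentration in binding buffer, started binding. Plates were sealed with TopSeal-A and incubated 1 hour at room temperature in the dark. Wells were counted for 30 seconds each on a TopCount after a 60-second delay, and percentage inhibition was calculated.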
# Human melanocortin (MC5) = target: T8, Human melanocortin (MC5) (Homo sapiens, UniProt P33032); assay: Radioligand binding, human melanocortin MC5 membranes, FlashPlate, [125I]-NDP-αMSH; settings: compound at 10 μM, [125I]-NDP-αMSH
# T8 construct: purchased Perkin Elmer Biosignal
# Procedure, shortened: as §1
# Human Melanocortin (MC3) = target: T9, Human Melanocortin (MC3) (Homo sapiens, UniProt P41968); assay: Radioligand binding, human melanocortin MC3 membranes, FlashPlate, [125I]-NDP-αMSH; settings: compound at 10 μM, [125I]-NDP-αMSH
# T9 construct: purchased Perkin Elmer Biosignal
# Procedure, shortened: as §1
# Human opioid (ORL1) = target: T10, Human opioid (ORL1) (Homo sapiens, UniProt P41146); assay: Radioligand binding, human opioid ORL1 membranes, FlashPlate, [125I]-Nociceptin; settings: compound at 10 μM, [125I]-Nociceptin
# T10 construct: purchased Perkin Elmer Biosignal
# Procedure, shortened: as §1
# Human Melanocortin (MC4) = target: T11, Human Melanocortin (MC4) (Homo sapiens, UniProt P32245); assay: Radioligand binding, human melanocortin MC4 membranes, FlashPlate, [125I]-NDP-αMSH; settings: compound at 10 μM, [125I]-NDP-αMSH
# T11 construct: purchased Perkin Elmer Biosignal
# Procedure, shortened: as §1
# T9 sequence (P41968 whole entry): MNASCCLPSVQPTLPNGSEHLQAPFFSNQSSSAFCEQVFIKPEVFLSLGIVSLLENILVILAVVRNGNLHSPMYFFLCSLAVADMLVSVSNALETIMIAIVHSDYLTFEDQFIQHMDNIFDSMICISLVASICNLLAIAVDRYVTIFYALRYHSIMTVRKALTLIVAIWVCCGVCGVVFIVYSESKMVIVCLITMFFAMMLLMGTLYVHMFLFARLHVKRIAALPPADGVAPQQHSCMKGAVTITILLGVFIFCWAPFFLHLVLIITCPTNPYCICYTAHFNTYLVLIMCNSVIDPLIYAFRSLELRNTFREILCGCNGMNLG
# T1 sequence (Q99705 whole entry): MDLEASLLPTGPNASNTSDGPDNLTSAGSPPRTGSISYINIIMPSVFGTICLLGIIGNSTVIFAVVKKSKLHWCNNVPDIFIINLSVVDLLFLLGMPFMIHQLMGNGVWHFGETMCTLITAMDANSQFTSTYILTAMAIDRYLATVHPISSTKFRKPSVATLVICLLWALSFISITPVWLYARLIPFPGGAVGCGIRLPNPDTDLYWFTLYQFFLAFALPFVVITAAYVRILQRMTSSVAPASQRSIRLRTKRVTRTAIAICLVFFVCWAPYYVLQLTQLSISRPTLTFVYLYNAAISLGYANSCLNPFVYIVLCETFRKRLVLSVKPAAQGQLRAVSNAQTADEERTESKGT
# T11 sequence (P32245 whole entry): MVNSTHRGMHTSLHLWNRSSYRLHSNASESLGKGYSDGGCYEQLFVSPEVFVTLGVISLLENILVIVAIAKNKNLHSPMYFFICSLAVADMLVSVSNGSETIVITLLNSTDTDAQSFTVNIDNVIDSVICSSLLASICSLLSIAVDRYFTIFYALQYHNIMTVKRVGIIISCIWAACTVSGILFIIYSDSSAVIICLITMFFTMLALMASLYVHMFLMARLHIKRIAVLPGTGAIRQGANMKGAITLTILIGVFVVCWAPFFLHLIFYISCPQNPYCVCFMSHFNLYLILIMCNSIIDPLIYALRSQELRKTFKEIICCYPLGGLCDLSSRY
# T5 sequence (P41143 whole entry): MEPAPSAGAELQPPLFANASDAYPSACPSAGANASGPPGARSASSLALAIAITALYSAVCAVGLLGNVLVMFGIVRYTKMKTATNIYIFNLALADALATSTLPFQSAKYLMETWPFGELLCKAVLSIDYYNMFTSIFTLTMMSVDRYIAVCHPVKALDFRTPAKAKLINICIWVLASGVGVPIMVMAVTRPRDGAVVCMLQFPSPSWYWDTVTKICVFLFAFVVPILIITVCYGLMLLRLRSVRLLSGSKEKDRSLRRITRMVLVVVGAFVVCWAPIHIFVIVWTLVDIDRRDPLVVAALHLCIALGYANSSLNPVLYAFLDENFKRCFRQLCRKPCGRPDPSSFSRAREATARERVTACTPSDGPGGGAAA
# T10 sequence (P41146 whole entry): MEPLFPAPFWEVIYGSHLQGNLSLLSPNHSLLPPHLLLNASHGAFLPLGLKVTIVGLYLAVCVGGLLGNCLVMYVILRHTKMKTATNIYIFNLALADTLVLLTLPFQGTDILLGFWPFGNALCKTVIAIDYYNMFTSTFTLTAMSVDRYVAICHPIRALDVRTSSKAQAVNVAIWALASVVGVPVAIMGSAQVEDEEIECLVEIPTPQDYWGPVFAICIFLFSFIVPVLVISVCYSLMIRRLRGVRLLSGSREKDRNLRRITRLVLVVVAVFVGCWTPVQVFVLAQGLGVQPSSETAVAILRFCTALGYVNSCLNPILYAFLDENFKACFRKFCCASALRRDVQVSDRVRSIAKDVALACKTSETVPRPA
# T8 sequence (P33032 whole entry): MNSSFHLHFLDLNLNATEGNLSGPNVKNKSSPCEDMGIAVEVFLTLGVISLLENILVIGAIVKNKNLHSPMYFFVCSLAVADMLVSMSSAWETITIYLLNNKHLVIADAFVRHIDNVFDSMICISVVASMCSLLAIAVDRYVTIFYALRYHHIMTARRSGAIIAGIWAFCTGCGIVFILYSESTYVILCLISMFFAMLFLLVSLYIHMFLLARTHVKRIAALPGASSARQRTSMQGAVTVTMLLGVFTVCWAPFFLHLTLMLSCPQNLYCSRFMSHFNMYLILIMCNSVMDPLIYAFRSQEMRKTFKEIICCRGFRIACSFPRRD
# T2 sequence (P35372 whole entry): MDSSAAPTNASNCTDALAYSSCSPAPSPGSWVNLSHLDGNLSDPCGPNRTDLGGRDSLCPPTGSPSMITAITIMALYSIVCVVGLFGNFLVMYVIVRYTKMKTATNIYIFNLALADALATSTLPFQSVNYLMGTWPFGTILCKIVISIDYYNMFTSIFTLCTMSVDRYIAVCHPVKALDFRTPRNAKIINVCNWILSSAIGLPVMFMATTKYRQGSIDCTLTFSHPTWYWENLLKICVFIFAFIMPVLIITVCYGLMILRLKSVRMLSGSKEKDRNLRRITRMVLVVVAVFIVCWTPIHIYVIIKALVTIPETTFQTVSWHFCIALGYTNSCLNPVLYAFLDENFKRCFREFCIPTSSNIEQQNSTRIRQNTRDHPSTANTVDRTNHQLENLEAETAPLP
# T3 sequence (P25103 whole entry): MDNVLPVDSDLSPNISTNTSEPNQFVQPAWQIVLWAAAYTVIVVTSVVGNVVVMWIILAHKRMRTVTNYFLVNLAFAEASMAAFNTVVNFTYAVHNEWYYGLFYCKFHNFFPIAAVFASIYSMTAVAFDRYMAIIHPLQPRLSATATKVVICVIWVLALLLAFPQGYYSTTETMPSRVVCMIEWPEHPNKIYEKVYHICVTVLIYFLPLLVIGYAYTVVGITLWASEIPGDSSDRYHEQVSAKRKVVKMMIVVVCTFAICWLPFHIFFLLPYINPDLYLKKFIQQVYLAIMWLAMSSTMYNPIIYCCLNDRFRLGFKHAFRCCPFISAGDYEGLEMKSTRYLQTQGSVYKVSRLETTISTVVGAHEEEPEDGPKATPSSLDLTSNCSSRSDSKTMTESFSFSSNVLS
# T4 sequence (P41145 whole entry): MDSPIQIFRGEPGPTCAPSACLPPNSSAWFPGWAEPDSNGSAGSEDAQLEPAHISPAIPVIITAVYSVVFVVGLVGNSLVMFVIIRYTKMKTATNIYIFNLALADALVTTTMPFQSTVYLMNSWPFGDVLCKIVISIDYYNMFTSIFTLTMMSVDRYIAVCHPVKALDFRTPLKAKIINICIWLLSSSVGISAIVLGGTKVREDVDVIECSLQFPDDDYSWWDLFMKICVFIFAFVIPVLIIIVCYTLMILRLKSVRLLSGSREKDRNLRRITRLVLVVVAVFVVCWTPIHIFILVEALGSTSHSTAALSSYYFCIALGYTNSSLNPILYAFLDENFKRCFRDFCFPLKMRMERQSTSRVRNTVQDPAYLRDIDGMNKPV
structure (smiles),measurement,setting,value
CSC1O[C@H](COCc2ccc3ccccc3c2)[C@@H](O)[C@@H](OCc2ccc(Cl)cc2)[C@H]1NC(=O)CNC(=N)N (stereo partly drawn) [compound 281],A6: inhibition of radioligand binding,"[1]; [125I]-S36057, FlashPlate",− (“−” indicates less than 50% inhibition at 10 μM)
same,A7: inhibition of radioligand binding,Human μ-opioid (MOP); FlashPlate,− (“−” indicates less than 50% inhibition at 10 μM)
same,A8: inhibition of radioligand binding,Human neurokinin (NK1); filtration,+ (“+” indicates greater than 50% inhibition at 10 μM)
same,A2: inhibition of radioligand binding,Human κ-Opioid (KOP); filtration,− (“−” indicates less than 50% inhibition at 10 μM)
same,A1: inhibition of radioligand binding,Human δ-opioid (DOP); FlashPlate,− (“−” indicates less than 50% inhibition at 10 μM)
same,A9: inhibition of radioligand binding,[2]; FlashPlate,− (“−” indicates less than 50% inhibition at 10 μM)
same,A11: inhibition of radioligand binding,Mouse urotensin (mUR2); FlashPlate,− (“−” indicates less than 50% inhibition at 10 μM)
same,A5: inhibition of radioligand binding,Human melanocortin (MC5); FlashPlate,+ (“+” indicates greater than 50% inhibition at 10 μM)
same,A3: inhibition of radioligand binding,Human Melanocortin (MC3); FlashPlate,+ (“+” indicates greater than 50% inhibition at 10 μM)
same,A10: inhibition of radioligand binding,Human opioid (ORL1); FlashPlate,− (“−” indicates less than 50% inhibition at 10 μM)
same,A4: inhibition of radioligand binding,Human Melanocortin (MC4); FlashPlate,+ (“+” indicates greater than 50% inhibition at 10 μM)
"NCCC(=O)NC1C(OCc2ccc(Cl)cc2)OC(COCc2ccc3ccccc3c2)C(O)C1OCc1ccccc1 (single isomer, unassigned) [compound 483]","A6: inhibition of radioligand binding, human melanin-concentrating hormone (MCH1)",[1]; [125I]-S36057,− (“−” indicates less than 50% inhibition at 10 μM)
same,"A7: inhibition of radioligand binding, human μ-opioid (MOP)",Human μ-opioid (MOP),− (“−” indicates less than 50% inhibition at 10 μM)
same,"A8: inhibition of radioligand binding, human neurokinin (NK1)",Human neurokinin (NK1),+ (“+” indicates greater than 50% inhibition at 10 μM)
same,"A2: inhibition of radioligand binding, human κ-opioid (KOP)",Human κ-Opioid (KOP),− (“−” indicates less than 50% inhibition at 10 μM)
same,"A1: inhibition of radioligand binding, human δ-opioid (DOP)",Human δ-opioid (DOP),− (“−” indicates less than 50% inhibition at 10 μM)
same,"A9: inhibition of radioligand binding, human neuropeptide Y (NPY-Y1)",[2],− (“−” indicates less than 50% inhibition at 10 μM)
same,"A11: inhibition of radioligand binding, mouse urotensin (mUR2)",Mouse urotensin (mUR2),− (“−” indicates less than 50% inhibition at 10 μM)
same,"A5: inhibition of radioligand binding, human melanocortin (MC5)",Human melanocortin (MC5),+ (“+” indicates greater than 50% inhibition at 10 μM)
same,"A3: inhibition of radioligand binding, human melanocortin (MC3)",Human Melanocortin (MC3),− (“−” indicates less than 50% inhibition at 10 μM)
same,"A10: inhibition of radioligand binding, human opioid (ORL1)",Human opioid (ORL1),− (“−” indicates less than 50% inhibition at 10 μM)
same,"A4: inhibition of radioligand binding, human melanocortin (MC4)",Human Melanocortin (MC4),− (“−” indicates less than 50% inhibition at 10 μM)
CO[C@H]1[C@H](O)[C@@H](COCc2ccc(Cl)cc2)OC(OCc2cccc(O)c2)[C@@H]1NC(=O)CCCN (stereo partly drawn) [compound 169],"A6 radioligand binding, percentage inhibition",[1]; [125I]-S36057,− (“−” indicates less than 50% inhibition at 10 μM)
same,"A7 radioligand binding, percentage inhibition",Human μ-opioid (MOP),− (“−” indicates less than 50% inhibition at 10 μM)
same,"A8 radioligand binding, percentage inhibition",Human neurokinin (NK1),+ (“+” indicates greater than 50% inhibition at 10 μM)
same,"A2 radioligand binding, percentage inhibition",Human κ-Opioid (KOP),− (“−” indicates less than 50% inhibition at 10 μM)
same,"A1 radioligand binding, percentage inhibition",Human δ-opioid (DOP),− (“−” indicates less than 50% inhibition at 10 μM)
same,"A9 radioligand binding, percentage inhibition",[2],− (“−” indicates less than 50% inhibition at 10 μM)
same,"A11 radioligand binding, percentage inhibition",Mouse urotensin (mUR2),− (“−” indicates less than 50% inhibition at 10 μM)
same,"A5 radioligand binding, percentage inhibition",Human melanocortin (MC5),− (“−” indicates less than 50% inhibition at 10 μM)
same,"A3 radioligand binding, percentage inhibition",Human Melanocortin (MC3),− (“−” indicates less than 50% inhibition at 10 μM)
same,"A10 radioligand binding, percentage inhibition",Human opioid (ORL1),− (“−” indicates less than 50% inhibition at 10 μM)
same,"A4 radioligand binding, percentage inhibition",Human Melanocortin (MC4),− (“−” indicates less than 50% inhibition at 10 μM)
